In ChEMBL document CHEMBL5696439 (Cancer Res, 2010):
The source made the active and inactive calls. The calls are words filed in the database; no cut-off is given here.

Experiments:
[1] = biological target: Serine/threonine-protein kinase 3 (Homo sapiens) (UniProt Q13188); experiment: Inhibition of recombinant human full length GST-tagged STK3 expressed in insect cells at 2 uM using Ser/Thr 07 as substrate measured after 1 hr by Z'-LYTE assay relative to control; conditions: Insect cell
[2] = biological target: Mitogen-activated protein kinase 12 (Homo sapiens) (UniProt P53778); experiment: Inhibition of recombinant human full length His-tagged MAPK12 expressed in baculovirus expression system at 2 uM using Ser/Thr 03 as substrate measured after 1 hr by Z'-LYTE assay relative to control
Chain of Mitogen-activated protein kinase 12 (Homo sapiens) (P53778 whole entry): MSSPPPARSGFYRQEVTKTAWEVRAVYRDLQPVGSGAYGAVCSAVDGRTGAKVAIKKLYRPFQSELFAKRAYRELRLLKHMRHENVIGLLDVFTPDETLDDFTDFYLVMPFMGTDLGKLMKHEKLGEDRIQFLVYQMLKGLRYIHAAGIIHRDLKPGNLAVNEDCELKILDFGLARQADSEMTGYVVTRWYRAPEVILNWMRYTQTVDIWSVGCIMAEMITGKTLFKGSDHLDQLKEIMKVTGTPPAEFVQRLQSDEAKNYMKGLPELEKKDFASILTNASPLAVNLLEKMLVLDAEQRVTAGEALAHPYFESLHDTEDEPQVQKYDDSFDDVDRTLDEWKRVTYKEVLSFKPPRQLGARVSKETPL

MDA-MB-361 [3] = experiment: Antitumor activity against human MDA-MB-361 cells xenografted in female nude mouse model assessed as suppression in P-AKT at S473 level at 6 to 12 mg/kg, po qd administered as 5 days on/2 days off regimen for 4 cycles by immunoblot analysis; type: functional, organism-based; conditions: dose 6-12 mg/kg, time 28.0 day
[4] = biological target: Death-associated protein kinase 3 (Homo sapiens) (UniProt O43293); experiment: Inhibition of recombinant human full-length GST-tagged DAPK3 expressed in insect cells at 2 uM using Ser/Thr 13 as substrate measured after 1 hr by Z'-LYTE assay relative to control; conditions: Insect cell
Chain of Death-associated protein kinase 3 (Homo sapiens) (O43293 whole entry, looked up): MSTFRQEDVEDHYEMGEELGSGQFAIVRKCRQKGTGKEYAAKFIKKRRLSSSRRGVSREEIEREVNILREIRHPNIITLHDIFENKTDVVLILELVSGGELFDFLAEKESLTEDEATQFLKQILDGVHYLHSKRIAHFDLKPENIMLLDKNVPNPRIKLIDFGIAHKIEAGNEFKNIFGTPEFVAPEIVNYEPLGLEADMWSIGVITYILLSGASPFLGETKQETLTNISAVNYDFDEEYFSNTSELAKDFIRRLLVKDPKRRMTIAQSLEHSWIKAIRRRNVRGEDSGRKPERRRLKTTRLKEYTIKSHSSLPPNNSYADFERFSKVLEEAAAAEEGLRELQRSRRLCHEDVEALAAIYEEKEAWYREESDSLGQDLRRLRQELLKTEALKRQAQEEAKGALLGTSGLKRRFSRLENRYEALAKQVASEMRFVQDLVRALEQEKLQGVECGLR

[5] = biological target: Dual specificity mitogen-activated protein kinase kinase 6 (Homo sapiens) (UniProt P52564); experiment: Inhibition of recombinant human full length His-tagged MAP2K6 expressed in baculovirus expression system at 2 uM using Ser/Thr 03 as substrate measured after 1 hr by Z'-LYTE assay relative to control
Chain of Dual specificity mitogen-activated protein kinase kinase 6 (Homo sapiens) (P52564 whole entry): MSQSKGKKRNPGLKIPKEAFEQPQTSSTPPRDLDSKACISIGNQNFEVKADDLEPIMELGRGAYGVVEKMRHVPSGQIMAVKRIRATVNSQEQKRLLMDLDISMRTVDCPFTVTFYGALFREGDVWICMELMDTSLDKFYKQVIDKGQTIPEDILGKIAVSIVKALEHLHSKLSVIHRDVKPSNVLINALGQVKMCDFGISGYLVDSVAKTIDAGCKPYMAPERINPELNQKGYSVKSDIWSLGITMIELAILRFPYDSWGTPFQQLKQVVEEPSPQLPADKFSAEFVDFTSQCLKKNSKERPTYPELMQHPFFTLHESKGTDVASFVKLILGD

[6] = biological target: MAP kinase-activated protein kinase 5 (Homo sapiens) (UniProt Q8IW41); experiment: Inhibition of recombinant human full length His-tagged MAPKAPK5 expressed in baculovirus expression system at 2 uM using Ser/Thr 04 as substrate measured after 1 hr by Z'-LYTE assay relative to control
U-87 MG = experiment: Induction of apoptosis in human U-87MG cells assessed as reduction in S phase at 1 micromol/L incubated for 24 hrs by FACS analysis; type: functional, cell-based; conditions: U-87MG ATCC, dose 1.0 µmol/L
[7] = biological target: Mitogen-activated protein kinase 9 (Homo sapiens) (UniProt P45984); experiment: Inhibition of recombinant human full length His-tagged MAPK9 expressed in baculovirus expression system at 2 uM using Ser/Thr 04 as substrate measured after 1 hr by Z'-LYTE assay relative to control
[8] = Inhibition of recombinant human full-length His-tagged CDK2/cyclin A expressed in insect cells at 2 uM using Ser/Thr 12 as substrate measured after 1 hr by Z'-LYTE assay relative to control; conditions: Insect cell, condition cancer
[9] = biological target: Serine/threonine-protein kinase mTOR (Homo sapiens, UniProt P42345); experiment: Inhibition of human full-length Flag-tagged mTOR expressed in HEK293 cells using His6-S6K as substrate measured after 2 hrs in presence of ATP by DELFIA
[10] = biological target: Serine/threonine-protein kinase Nek1 (Homo sapiens) (UniProt Q96PY6); experiment: Inhibition of recombinant human GST-tagged NEK1 (1-505 residues) expressed in insect cells at 2 uM using Ser/Thr 07 as substrate measured after 1 hr by Z'-LYTE assay relative to control; conditions: Insect cell
Chain of Serine/threonine-protein kinase Nek1 (Homo sapiens) (Q96PY6 whole entry, the tested form may be a part): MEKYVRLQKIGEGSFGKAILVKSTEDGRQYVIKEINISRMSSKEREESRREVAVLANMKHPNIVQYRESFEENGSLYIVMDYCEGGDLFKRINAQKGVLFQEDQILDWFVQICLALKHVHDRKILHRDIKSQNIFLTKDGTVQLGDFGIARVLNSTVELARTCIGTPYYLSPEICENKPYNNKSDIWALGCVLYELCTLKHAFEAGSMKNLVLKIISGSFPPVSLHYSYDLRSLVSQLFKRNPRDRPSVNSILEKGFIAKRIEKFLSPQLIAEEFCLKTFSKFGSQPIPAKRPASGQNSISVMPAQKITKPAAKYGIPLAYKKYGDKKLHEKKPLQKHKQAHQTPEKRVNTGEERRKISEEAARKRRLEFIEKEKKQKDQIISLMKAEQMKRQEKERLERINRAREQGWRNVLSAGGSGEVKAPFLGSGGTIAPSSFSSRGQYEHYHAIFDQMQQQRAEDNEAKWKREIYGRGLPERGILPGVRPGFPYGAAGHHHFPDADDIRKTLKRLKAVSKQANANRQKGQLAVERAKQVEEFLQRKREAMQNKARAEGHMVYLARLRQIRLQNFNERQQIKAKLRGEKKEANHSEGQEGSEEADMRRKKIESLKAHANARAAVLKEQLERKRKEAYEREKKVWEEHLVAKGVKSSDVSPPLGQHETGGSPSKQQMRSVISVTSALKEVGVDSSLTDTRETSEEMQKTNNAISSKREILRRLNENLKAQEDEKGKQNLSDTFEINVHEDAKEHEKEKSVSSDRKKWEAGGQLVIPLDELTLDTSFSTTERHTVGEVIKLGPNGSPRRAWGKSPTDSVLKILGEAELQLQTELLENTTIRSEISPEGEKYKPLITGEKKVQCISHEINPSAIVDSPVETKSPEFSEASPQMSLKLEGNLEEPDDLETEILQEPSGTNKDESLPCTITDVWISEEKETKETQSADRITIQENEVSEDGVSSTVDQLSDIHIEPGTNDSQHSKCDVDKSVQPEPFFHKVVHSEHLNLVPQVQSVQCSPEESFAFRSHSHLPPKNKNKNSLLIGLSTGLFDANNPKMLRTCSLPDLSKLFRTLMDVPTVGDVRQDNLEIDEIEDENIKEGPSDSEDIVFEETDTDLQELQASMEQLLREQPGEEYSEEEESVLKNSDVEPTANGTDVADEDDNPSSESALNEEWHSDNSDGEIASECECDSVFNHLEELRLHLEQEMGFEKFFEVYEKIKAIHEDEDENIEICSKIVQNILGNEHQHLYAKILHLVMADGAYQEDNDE

[11] = biological target: Receptor tyrosine-protein kinase erbB-2 (Homo sapiens) (UniProt P04626); experiment: Inhibition of recombinant human His-tagged ERBB2 (676-1255 residues) expressed in insect cells at 2 uM using Tyr 06 as substrate measured after 1 hr by Z'-LYTE assay relative to control; conditions: Insect cell
Chain of Receptor tyrosine-protein kinase erbB-2 (Homo sapiens) (P04626 whole entry, the tested form may be a part, canonical isoform): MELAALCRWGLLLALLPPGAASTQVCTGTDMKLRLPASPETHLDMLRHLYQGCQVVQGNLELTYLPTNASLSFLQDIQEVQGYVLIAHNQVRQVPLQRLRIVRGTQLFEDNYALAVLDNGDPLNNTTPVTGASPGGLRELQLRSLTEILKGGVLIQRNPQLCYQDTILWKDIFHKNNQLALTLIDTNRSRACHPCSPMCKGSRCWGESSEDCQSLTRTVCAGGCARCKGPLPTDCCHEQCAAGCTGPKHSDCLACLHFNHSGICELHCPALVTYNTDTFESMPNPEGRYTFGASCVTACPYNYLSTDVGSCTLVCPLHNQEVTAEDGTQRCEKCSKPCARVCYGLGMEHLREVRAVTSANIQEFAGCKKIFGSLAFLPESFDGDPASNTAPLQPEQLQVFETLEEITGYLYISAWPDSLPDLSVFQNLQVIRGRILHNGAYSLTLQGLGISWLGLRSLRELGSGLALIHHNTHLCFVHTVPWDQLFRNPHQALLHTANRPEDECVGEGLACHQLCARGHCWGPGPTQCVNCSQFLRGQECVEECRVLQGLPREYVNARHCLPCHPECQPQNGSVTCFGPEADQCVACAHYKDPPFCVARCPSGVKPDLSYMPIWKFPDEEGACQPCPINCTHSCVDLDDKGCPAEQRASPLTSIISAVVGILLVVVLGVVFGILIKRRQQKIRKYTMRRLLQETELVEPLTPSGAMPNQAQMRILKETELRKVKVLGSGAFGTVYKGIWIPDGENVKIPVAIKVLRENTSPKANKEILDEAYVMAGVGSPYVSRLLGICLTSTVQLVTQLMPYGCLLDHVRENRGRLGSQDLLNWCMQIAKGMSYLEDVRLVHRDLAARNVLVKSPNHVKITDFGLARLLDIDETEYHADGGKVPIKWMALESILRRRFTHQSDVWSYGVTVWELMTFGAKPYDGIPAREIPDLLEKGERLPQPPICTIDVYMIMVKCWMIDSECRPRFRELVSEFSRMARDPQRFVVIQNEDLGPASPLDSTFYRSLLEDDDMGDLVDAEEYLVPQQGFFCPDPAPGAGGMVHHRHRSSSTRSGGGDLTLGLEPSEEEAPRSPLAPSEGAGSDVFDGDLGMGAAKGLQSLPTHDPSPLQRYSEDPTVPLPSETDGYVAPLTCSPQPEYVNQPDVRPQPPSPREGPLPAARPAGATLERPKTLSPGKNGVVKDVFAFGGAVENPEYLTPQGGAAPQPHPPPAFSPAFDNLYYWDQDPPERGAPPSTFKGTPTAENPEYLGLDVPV

[12] = biological target: Casein kinase I isoform gamma-3 (Homo sapiens) (UniProt Q9Y6M4); experiment: Inhibition of recombinant human full-length GST-tagged CSNK1G3 expressed in insect cells at 2 uM using Ser/Thr 05 as substrate measured after 1 hr by Z'-LYTE assay relative to control; conditions: Insect cell
MDA-MB-361 [13] = experiment: Induction of apoptosis in human MDA-MB-361 cells assessed as change in AKT phosphorylation at T308 level at 0.05 to 5 micromol/L incubated for 48 hrs by Western blot analysis; type: functional, cell-based; conditions: dose 0.05-5 µmol/L
BT-474 = experiment: Induction of apoptosis in human BT-474 cells assessed as increase in PARP cleavage at 0.3 to 3 micromol/L incubated for 48 hrs by Western blot analysis; type: functional, cell-based; conditions: dose 0.3-3 µmol/L
MDA-MB-361 [14] = experiment: Induction of apoptosis in human MDA-MB-361 cells assessed as induction in cell death at 3 micromol/L incubated for 48 hrs by FACS analysis relative to control; type: functional; conditions: dose 3 µmol/L, at 3 µM
[15] = biological target: Fibroblast growth factor receptor 1 (Homo sapiens) (UniProt P11362); experiment: Inhibition of recombinant human His-tagged FGFR1 (308-731 residues) expressed in baculovirus expression system at 2 uM using Tyr 04 as substrate measured after 1 hr by Z'-LYTE assay relative to control
A498 [16] = experiment: Antiproliferative activity against human A498 cells assessed as cell growth inhibition at 10 micromol/L incubated for 3 days by MTS assay relative to control; type: functional; conditions: A498, 72 h, dose 10 µmol/L, time 3 day
A498 [17] = experiment: Synergistic antitumor activity against human A498 cells xenografted in female nude mouse model assessed as cause in tumor regression at 50 mg/kg, po qd administered as 5 days on/2 days off regimen for 4 cycles in the presence of BEV; type: functional, organism-based; conditions: time 28.0 day
786-0 = experiment: Antiproliferative activity against human 786-0 cells assessed as cell growth inhibition incubated for 24 hrs by MTS assay; type: functional, cell-based; conditions: 786-0, 24 h
[18] = biological target: Tyrosine-protein kinase Lyn (Homo sapiens) (UniProt P07948); experiment: Inhibition of recombinant human full length His-tagged LYN B expressed in baculovirus expression system at 2 uM using Tyr 02 as substrate measured after 1 hr by Z'-LYTE assay relative to control
[19] = biological target: Serine/threonine-protein kinase B-raf (Homo sapiens) (UniProt P15056); experiment: Inhibition of recombinant human full-length GST tagged BRAF expressed in insect cells at 2 uM using Ser/Thr 03 as substrate measured after 1 hr by Z'-LYTE assay relative to control; conditions: Insect cell
Chain of Serine/threonine-protein kinase B-raf (Homo sapiens) (P15056 whole entry, the tested form may be a part): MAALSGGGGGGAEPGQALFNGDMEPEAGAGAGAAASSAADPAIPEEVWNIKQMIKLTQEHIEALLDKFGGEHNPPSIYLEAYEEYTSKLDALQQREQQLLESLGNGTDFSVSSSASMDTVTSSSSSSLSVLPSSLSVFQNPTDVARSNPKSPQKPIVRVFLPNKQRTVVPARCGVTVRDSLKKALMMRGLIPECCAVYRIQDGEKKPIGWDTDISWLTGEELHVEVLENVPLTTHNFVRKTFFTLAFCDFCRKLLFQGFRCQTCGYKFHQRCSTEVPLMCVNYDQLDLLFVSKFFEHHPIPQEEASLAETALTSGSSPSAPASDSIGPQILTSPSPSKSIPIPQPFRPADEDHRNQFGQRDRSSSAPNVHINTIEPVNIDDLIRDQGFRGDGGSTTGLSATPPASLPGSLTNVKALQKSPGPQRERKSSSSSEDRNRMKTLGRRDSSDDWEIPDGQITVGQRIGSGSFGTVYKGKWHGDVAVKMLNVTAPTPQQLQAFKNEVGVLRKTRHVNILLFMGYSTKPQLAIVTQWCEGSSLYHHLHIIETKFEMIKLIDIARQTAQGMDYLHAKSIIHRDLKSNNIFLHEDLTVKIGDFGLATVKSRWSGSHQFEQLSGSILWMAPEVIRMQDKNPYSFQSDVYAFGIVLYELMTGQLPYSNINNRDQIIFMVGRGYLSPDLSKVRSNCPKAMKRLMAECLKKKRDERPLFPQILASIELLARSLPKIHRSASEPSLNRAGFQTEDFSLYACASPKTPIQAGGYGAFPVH

[20] = biological target: Proto-oncogene tyrosine-protein kinase ROS (Homo sapiens) (UniProt P08922); experiment: Inhibition of recombinant human GST-tagged ROS1 (1883-2347 residues) expressed in insect cells at 2 uM using Tyr 01 as substrate measured after 1 hr by Z'-LYTE assay relative to control; conditions: Insect cell
[21] = biological target: Dual specificity protein kinase CLK2 (Homo sapiens) (UniProt P49760); experiment: Inhibition of recombinant human GST-tagged CLK2 (137-498 residues) expressed in insect cells at 2 uM using Ser/Thr 06 as substrate measured after 1 hr by Z'-LYTE assay relative to control; conditions: Insect cell
[22] = biological target: Serine/threonine-protein kinase MRCK beta (Homo sapiens) (UniProt Q9Y5S2); experiment: Inhibition of recombinant human His-tagged CDC42BPB (1-473 residues) expressed in baculovirus expression system at 2 uM using Ser/Thr 13 as substrate measured after 1 hr by Z'-LYTE assay relative to control

Chain of Serine/threonine-protein kinase 3 (Homo sapiens) (Q13188 whole entry): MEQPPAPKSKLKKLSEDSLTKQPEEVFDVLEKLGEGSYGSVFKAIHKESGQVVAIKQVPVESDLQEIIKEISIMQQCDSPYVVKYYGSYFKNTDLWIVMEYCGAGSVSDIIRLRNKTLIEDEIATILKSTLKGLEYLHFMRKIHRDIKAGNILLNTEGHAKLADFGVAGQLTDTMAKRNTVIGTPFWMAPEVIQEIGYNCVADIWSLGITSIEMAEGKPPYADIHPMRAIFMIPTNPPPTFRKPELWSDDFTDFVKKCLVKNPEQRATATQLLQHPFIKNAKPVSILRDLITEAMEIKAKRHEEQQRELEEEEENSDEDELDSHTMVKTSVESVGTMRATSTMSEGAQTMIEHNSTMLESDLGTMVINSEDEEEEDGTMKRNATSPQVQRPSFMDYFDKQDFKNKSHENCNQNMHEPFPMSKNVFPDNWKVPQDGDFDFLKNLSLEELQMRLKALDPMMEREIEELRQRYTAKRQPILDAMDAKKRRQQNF

In the case of `CNC(=O)Nc1ccc(-c2nc(N3CC4CCC(C3)O4)c3cnn(C4CCC5(CC4)OCCO5)c3n2)cc1`, the inhibition [1] is reported as 0%, the inhibition [2] is reported as -2% and the Activity (MDA-MB-361 [3]) is reported as “Active”. The inhibition [4] was 2%, the inhibition [5] was 8% and the inhibition [6] was 5%. The Activity (U-87 MG) was “Active”, the inhibition [7] was 11% and the inhibition at 2 µM [8] was 0%. The IC50 [9] was 0.00019 µM, the inhibition [10] was 7% and the inhibition [11] was 0%. For the same molecule, the inhibition [12] was -1%, the Activity (MDA-MB-361 [13]) was “inactive” and the Activity (BT-474) was “Active”. For the same molecule, the Activity (MDA-MB-361 [14]) was 59%, the inhibition [15] was 4% and the inhibition at 10 µM (A498 [16]) was 100%. The Activity (A498 [17]) was “Active”, the IC50 (786-0) was 0.12 µM and the inhibition [18] was 5%. It also gave an inhibition [19] of 6%, an inhibition [20] of 2% and an inhibition [21] of 0%. It also gave an inhibition [22] of 9%.
